Results as given in patent US20090143441A1, “Combination therapies of Thiazolidinedione analogues” (priority 2006, published 2009).
“Also recorded” adds a separate entry of the source.

Columns and labels:
PPARγ = target: T1, PPARγ (Homo sapiens, UniProt P37231); assay: Commercial PPARγ binding assay (Invitrogen, PPAR-LBD/Fluormone PPAR Green complex); details: for PPARγ ligand binding (Fluormone displacement signal) / Activation of PPARγ: average (SEM) of three experiments in quadruplicate; for Binding to PPARγ (in words): summary of FIG. 1 and Table B
T1 construct: purchased Invitrogen Corporation, Carlsbad, Calif
T1 sequence (P37231 238-503 limits assumed): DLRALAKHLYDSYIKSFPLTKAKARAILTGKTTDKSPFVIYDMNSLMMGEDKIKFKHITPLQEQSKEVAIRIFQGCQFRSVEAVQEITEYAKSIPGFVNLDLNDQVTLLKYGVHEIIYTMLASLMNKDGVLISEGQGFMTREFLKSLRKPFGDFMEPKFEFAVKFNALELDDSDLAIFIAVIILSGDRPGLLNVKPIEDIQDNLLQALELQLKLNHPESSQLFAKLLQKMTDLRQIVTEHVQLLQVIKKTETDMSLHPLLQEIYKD
Experimental: The ability of several exemplary compounds of the present invention, shown in Table A, to bind to PPARγ was measured using a commercial binding assay (Invitrogen Corporation, Carlsbad, Calif.) that measures the test compounds ability to bind with PPAR-LBD/Fluormone PPAR Green complex. These assays were performed on three occasions with each assay using four separate wells (quadruplicate) at each concentration of tested compound. The data in Table B are average and SEM of three experiments, each of which were performed in quadruplicate on separate days. […] Compounds were added at the concentrations shown, which range from 0.1-100 micromolar.

[1] = test system: normal male Sprague-Dawley rats with Medrol-induced hypertension; assay: Prevention of Medrol-induced hypertension, mean blood pressure by direct femoral arterial cannulation; assay type: in vivo; details: for Mean blood pressure, Fasted: after a 6 hour fast on day 8; for Mean blood pressure, Fasted / Mean blood pressure, Fed: daily dosing, Compound 1 40 mg/kg/day, Medrol 20 mg/kg/day, N=9, * p<0.05 less than Medrol-treated rats; for Mean blood pressure, Fed: fed conditions on day 7
Experimental: Hypertension was induced in normal male Sprague-Dawley rats by daily dosing with the glucocorticoid methylprednisolone (Medrol) for 8 days. Separate groups of rats received the vehicle (1% carboxymethylcellulose/0.01% Tween 20) by oral gavage and some of both the vehicle-treated and Medrol-treated rats also received daily doses of compound 1 as shown in Table C. Mean blood pressure was measured by direct femoral arterial cannulation under fed conditions on day 7 and after a 6 hour fast on day 8. The data are mean and (SEM) mean blood pressure obtained by direct cannulation. N=9; * p<0.05 less than blood pressure in Medrol-treated rats.

Compound	PPARγ ligand binding (Fluormone displacement signal) (PPARγ; compound at 1 μM)	Activation of PPARγ (PPARγ; compound at 3 μM)	Activation of PPARγ (PPARγ; compound at 10 μM)	Activation of PPARγ (PPARγ; compound at 50 μM)	Activation of PPARγ (PPARγ; compound at 100 μM)	Activation of PPARγ (PPARγ; compound at .1 μM)	PPARγ ligand binding (Fluormone displacement signal) (PPARγ; compound at .3 μM)	Binding to PPARγ (in words) (PPARγ)	Mean blood pressure, Fasted [1]	Mean blood pressure, Fed [1]	Antihypertensive action (in words) ([1]; hypertension generated by treatment with a glucocorticoid, FIG. 2 and Table C)	PPARγ ligand binding (Fluormone displacement signal) (PPARγ; compound at 10 μM)	PPARγ ligand binding (Fluormone displacement signal) (PPARγ; compound at 50 μM)	PPARγ ligand binding (Fluormone displacement signal) (PPARγ; compound at 100 μM)	PPARγ ligand binding (Fluormone displacement signal) (PPARγ; compound at .1 μM)	PPARγ ligand binding (Fluormone displacement signal) (PPARγ; compound at 3 μM)	Activation of PPARγ (PPARγ; compound at .3 μM)	Activation of PPARγ (PPARγ; compound at 1 μM)
CCc1ccc(C(=O)COc2ccc(CC3SC(=O)NC3=O)cc2)nc1 (centres unmarked) [Compound 1]	223 (12)	228 (6)	207 (13)	174 (28)	170 (35)	227 (1)	232 (8)	particularly poor binders to PPARγ	108	108	unexpected antihypertensive action; also recorded: significantly lowered blood pressure							
CCc1ccc([C@@H](O)COc2ccc(CC3SC(=O)NC3=O)cc2)nc1 (some centres unmarked) [Compound 2]	238 (12)	236 (13)					233 (15)	particularly poor binders to PPARγ; also recorded: PPARγ-sparing compound				223 (11)	162 (8)	136 (11)	231 (15)			
CCc1ccc(C(=CC(=O)OC)COc2ccc(CC3SC(=O)NC3=O)cc2)nc1 (centres unmarked) [Compound 3]	203 (15)	185 (17)	134 (1)	88 (6)		226 (17)	221 (10)							77 (7)				
CCc1ccc(CCOc2ccc(CC3(C)SC(=O)NC3=O)cc2)nc1 (centres unmarked) [Compound 4]	234 (11)			122 (21)		236 (13)						200 (8)		91 (11)		224 (15)	230 (14)	
CCc1ccc(C(O)COc2ccc(CC3(C)SC(=O)NC3=O)cc2)nc1 (centres unmarked) [Compound 5]	228 (9)						230 (10)					212 (11)	132 (12)	106 (7)	235 (8)	226 (8)		
CCc1ccc(CCOc2ccc(CC3(C)SC(=O)NC3=O)cc2)nc1 (centres unmarked) [Compound 6]	233 (11)			126 (17)			246 (9)					198 (10)		99 (12)	246 (7)	223 (7)		
CCc1ccc(CCOc2ccc(CC3(C)SC(=O)NC3=O)cc2)nc1 (centres unmarked) [Compound 7]												210 (9)	144 (15)	105 (10)	249 (9)	237 (7)	246 (5)	248 (13)
CCc1ccc([C@@H](O)COc2ccc(CC3(C)SC(=O)NC3=O)cc2)nc1 (some centres unmarked) [Compound 8]					186 (16)	237 (6)						233 (7)	199 (15)			241 (10)	243 (5)	239 (5)
CCc1ccc([C@H](O)COc2ccc(CC3(C)SC(=O)NC3=O)cc2)nc1 (some centres unmarked) [Compound 9]				189 (19)	164 (20)	237 (5)						234 (12)				233 (9)	237 (4)	239 (13)
CCc1ccc(C(=O)COc2ccc(CC3(C)SC(=O)NC3=O)cc2)nc1 (centres unmarked) [Compound 10]			219 (5)			245 (2)							126 (3)	93 (3)		234 (3)	239 (2)	240 (2)
CCc1ccc(C(=CC(=O)OC)COc2ccc(CC3SC(=O)NC3=O)cc2)nc1 (centres unmarked) [Compound 11]	232 (12)			128 (30)			227 (9)					165 (10)		78 (3)	230 (12)	229 (10)		
CCc1ccc(C(COc2ccc(CC3SC(=O)NC3=O)cc2)CC(=O)OC)nc1 (centres unmarked) [Compound 12]				80 (2)								112 (12)		85 (3)	243 (3)	155 (8)	222 (4)	198 (6)
CCc1ccc(C(=CCO)COc2ccc(CC3SC(=O)NC3=O)cc2)nc1 (centres unmarked) [Compound 13]		230 (13)		148 (23)	108 (5)		243 (10)					204 (12)			244 (9)			229 (20)
C[C@H]1C[C@@H]2[C@H]([C@@H](O)C[C@@]3(C)[C@H]2CC[C@]3(O)C(=O)CO)[C@@]2(C)C=CC(=O)C=C12 [Medrol, methylprednisolone, reference compound]									122	123								
